The nature of data set [1]: Dimethylnitrosamine formation in treated and untreated fried bacon, thermal energy analysis (TEA). The conditions noted are these: duplicate. Here is the method: (§1) Several base pickle solutions were prepared in tap water using the following proportions of ingredients: 2.0% sodium tripolyphosphate; 2.5% sucrose, 0%, 0.20% or 0.55% sodium erythorbate; 0.12% or 0.20% sodium nitrite; and 17.0% sodium chloride. Each ingredient was added to the water in the order given and completely dissolved before adding the next ingredient. The desired amount of ascorbyl or erythorbyl laurate was added to selected base solutions as follows. A dispersion or ascorbyl or erythorbyl laurate and Tween 20 was prepared by slurrying 2 parts of Tween 20 and 5 parts of ascorbyl or erythorbyl laurate, hydrating the slurry with a small amount of the base pickle solution and vigorously agitating the hydrated slurry for 10 min to break up the large agglomerates that formed. […] The resultant mixture was homogenized 2 times at 1000 psi in a single-stage homogenizer to give the final pickle solution. The pickle solution was chilled to about 40° F. immediately after preparation and used to prepare the bacon on the day of preparation. Duplicate pork bellies of about 10 lbs weight were stitch-pumped using each of the various concentrations of control or laurate treated cooled, agitated pickle solutions. […] The combined bacon slices from each belly were analyzed for dimethylnitrosamine and nitrosopyrrolidine using standard procedures and a TEA analyzer.

A short description of data set [2]: Nitrosopyrrolidine formation in treated and untreated fried bacon, thermal energy analysis (TEA). The conditions noted are these: for Level of nitrosopyrrolidine (NPy) detected in fried bacon: duplicate; for Reduction of nitrosopyrrolidine relative to untreated fried bacon: treated vs untreated fried bacon; for Level of reduction of nitrosopyrrolidine compared with tocopherol: vs positive control 500 ppm tocopherol. The procedure:
as §1

A short description of data set [3]: Mayonnaise storage test: color, odor and freshness. The conditions noted are these: three months at room temperature; 200 ppm in the vegetable oil. Here is the method:
In an electric beater, 20 g of egg yolks, 1.2 g of dry mustard, 3.0 g of salt, and 10 ml of vinegar are combined and well beaten; 144 g of vegetable oil (such as cottonseed, corn, or sesame) which contains 200 ppm (0.02%) of ascorbyl or erythorbyl laurate is then added with constant whipping, and beating is continued until there is complete emulsification and no free oil remains. An additional 10 ml of vinegar is added and the beating is continued for a few minutes longer until the emulsion is smooth and of a semi-solid consistency. The resultant mayonnaise is packed in jars and capped.
After three months of storage at room temperature, the color, odor and freshness of the treated mayonnaise are evaluated against similarly stored, untreated mayonnaise and against freshly prepared mayonnaise.

Data set [4] can be described thus: Equilibrium oil-water solubility and phase distribution coefficient. The conditions noted are these: for Total Solubility: oil plus water phase; for solubility: vegetable oil/water, stirred overnight; for Total solubility (in words): oil and water. Format: physicochemical. Here is the method:
The oil and water layers were separated by centrifugation at 10,000 rpm for 30 min. Any undissolved ester was removed by gravity filtration through fluted filter paper. The oil and water layers were assayed for ester using 0.01N I2 solution.

A short description of data set [5]: Bologna storage test: panel comparison of color, odor and flavor. Particulars: stored at 36°-40° F. for 1 month. The procedure:
(§2) In a large mixer there are combined 60 lb of whole carcass beef which has been ground through a 1/4" plate, 40 lb of regular pork trimmings which has been ground through a 3/8" plate, 2 lb 12 oz of salt, 8 oz of sugar, 4 oz of ground white pepper, 1 oz of coriander, 1 oz of mace, 0.85 oz of sodium erythorbate, 0.25 oz of sodium nitrite, and 1.00 oz of erythorbyl laurate. 25 lb of chopped ice is added and the mixture is cycled through a mechanical emulsifier until the desired texture is attained. The finished emulsion is transferred to a casing stuffer and stuffed into a No. 8 by 36 in. fibrous casing. The resultant product is ready for smoking, which will require approximately 8 hrs. The product is placed in a smokehouse at 130° F. with the damper open and cooked for 30 min. The damper is then closed and the temperature is raised 10° F./hr to 170° F. The heating is continued at 170° F. until an internal temperature of 156° F. is reached. The resultant bologna is cold showered with tap water for 35 to 40 min, held at room temperature for 30 min, and placed in a cooler at 36°-40° F. This procedure will produce bolognas of approximately 18 lb with a 15 in. circumference.
The treated bologna is sliced, wrapped and stored at 36°-40° F. for 1 month and its color, odor and flavor are compared to a similarly prepared and stored, untreated bologna.

Data set [6] can be described thus: Bologna N-nitrosamine analysis by TEA. The procedure:
as §2
The two bolognas may be analyzed for N-nitrosamines using standard procedures and a TEA analyzer.

Data set [7] is described as follows: Hand creme accelerated stability test at 63° C., color, appearance and odor by test panel. The conditions noted are these: one month at 63° C. The procedure:
(§3) A hand creme is prepared by mixing a water phase at 70° C. with an oil phase at 75° C. The oil phase consists of 2.0 g of isopropyl myristate, 2.0 g of cetyl alcohol, 15.0 g of stearic acid, 2.0 g of lanolin, and 20.0 mg of erythorbyl laurate. The water phase consists of 71.6 ml of deionized water, 3.0 g of glycerol, 3.0 g of 70% sorbitol, and 1.4 g of triethanolamine. After thoroughly mixing the oil and water phases, the emulsion is cooled to 45° C. at which time the appropriate perfumes are added and mixed thoroughly into the emulsion. After cooling the emulsion to room temperature, the resultant hand creme is placed in an opaque glass jar and sealed.
(§4) Using an accelerated stability test at 63° C. this hand creme is compared to a similarly prepared hand creme containing no erythorbyl laurate. After one month of storage at 63° C., the color, appearance and odor of both hand cremes are evaluated against freshly prepared control hand creme.

The nature of data set [8]: Hand creme N-nitrosamine analysis by TEA. Here is the method: as §3
Portions of the hand cremes described above may be analyzed for N-nitrosamines using a Thermal Energy Analyzer (TEA) and standard procedures.

A short description of data set [9]: Corn flakes storage test: rancid and painty taste. Particulars: six months at room temperature; 0.005% by weight, aqueous spray. Here is the method:
In a cylindrical pressure cooker are placed about 1700 pounds of degermed and debranned, No. 4-5 milled, hybrid yellow corn and 36 gallons of flavoring syrup composed of sugar, malt, salt and water. The mixture is cooked at 18 psi steam pressure for about 11/2 hours to produce a moisture content of about 33%. Uniform translucency of the kernels will indicate an adequate cook. The kernels are crushed and dried to about 21% moisture. The dried, crushed grits are then heat tempered at 180° F. for 16 hours in order to evenly distribute the water content. The cooked, dried grits are flaked using a conventional flake roller and are passed directly to the toasting oven where they are heated at 575° F. for 50 seconds to produce the finished flakes of less than 3% moisture content. As they cool, they are treated with an aqueous spray of B-complex vitamins and 0.005% by weight erythorbyl laurate relative to the final corn flakes weight. The treated, finished flakes are placed in paper boxes with waxed paper liners.
Treated and untreated flakes are stored six months at room temperature and then compared.

For data set [10] the following is noted: general statement, not tested in Example 7; cited from earlier work.
Data set [11] is described as follows: Emollient lotion accelerated stability test. The conditions noted are these: accelerated stability tests of Example 3. Here is the method:
as §4
An oil phase consisting of 70 g of mineral oil, 30 g of lanolin, and 30 g of glycerol monostearate and heated to 75° C. is added to a water phase consisting of 15 g triethanolamine, 200 mg of erythorbyl caprate, and 849 ml of water, also at 75° C. After thoroughly mixing the oil and water phases at 75° C., the emulsion is cooled to 45° C. and perfumed. After cooling to room temperature the emulsion is homogenized to give the emollient lotion.
Using the accelerated stability tests of Example 3 the treated emollient lotion is compared to a similarly prepared, untreated emollient lotion.

Setting [12] is: 120 ppm NaNO2, 550 ppm NaEr + 500 ppm AL, listed as AL.
[13] abbreviates: organic solvent or mixture, read-out: Oil Phase Solubility.
Where [14] appears, read: read-out: Water Phase Solubility.
[15] abbreviates: 120 ppm NaNO2, 550 ppm NaEr + 500 ppm EL.
The mark [16] stands for this setting: 120 ppm NaNO2, 200 ppm NaEr only (null control).
Where [17] appears, read: 200 ppm NaNO2, 200 ppm NaEr only.

Here are results for ten compounds from patent publication US4251563A, “Compositions containing N-nitrosamine formation or oxidation inhibitors and the use thereof” (Pfizer Inc., priority 1979, dated 1981).

≈ marks a conversion by molar mass, not a printed value. Where “and” joins values, the source holds several entries; their conditions need not be identical. Equal entries are not always repeated. Where two headings read alike, the source gives them in different places.

With `CCCCCCCCCCCC(=O)OC[C@H](O)[C@H]1OC(=O)C(O)=C1O` [ascorbyl laurate], the “Level of dimethylnitrosamine (DMNA) detected in fried bacon” value (“Level of dimethylnitrosamine” for short) was 2.7 ppb and 1.7 ppb in data set [1] (setting [12]); 1.6 ppb and 2.6 ppb in data set [1] (200 ppm NaNO2, 550 ppm NaEr + 500 ppm AL, listed as AL). The “Level of nitrosopyrrolidine (NPy) detected in fried bacon” value (shortened to “Level of nitrosopyrrolidine”) in [2] (setting [12]) was 1.4 ppb and 2.4 ppb. Besides, the “Reduction of nitrosopyrrolidine relative to untreated fried bacon” value in data set [2] is listed as “approximately four”. Further, the “Level of reduction of nitrosopyrrolidine compared with tocopherol” value in data set [2] is given as “about the same”. Further, the “Objectionable change in color, odor and freshness of mayonnaise” value in [3] is “substantially less objectionable change”. Moreover, the “Total Solubility” value in data set [4] worked out at 390 ppm. Further, the solubility worked out at 250 µg/mL (≈ 697 µM) in data set [4] (setting [13]) and 140 µg/mL (≈ 391 µM) in data set [4] (setting [14]).
Regarding `CCCCCCCCCCCC(=O)OC[C@@H](O)[C@H]1OC(=O)C(O)=C1O` [erythorbyl laurate], the “Level of dimethylnitrosamine” value in data set [1] (120 ppm NaNO2, 550 ppm NaEr + 250 ppm EL, listed as EL) is 1.2 ppb and 1.7 ppb; in data set [1] (setting [15]), “trace (Trace means less than 1 ppb)”; in [1] (120 ppm NaNO2, 995 ppm EL, no NaEr, listed as EL), 1.2 ppb and 1.0 ppb; in data set [1] (200 ppm NaNO2, 550 ppm NaEr + 250 ppm EL), 2.0 ppb; in data set [1] (200 ppm NaNO2, 550 ppm NaEr + 500 ppm EL, listed as EL), 1.3 ppb and 1.9 ppb; in [1] (200 ppm NaNO2, 995 ppm EL, no NaEr, listed as EL), 2.2 ppb and 1.7 ppb. In addition, the “Level of nitrosopyrrolidine” value in [2] (setting [15]) is recorded as “trace (Trace means less than 1 ppb)”; in [2] (200 ppm NaNO2, 550 ppm NaEr + 500 ppm EL), “trace (Trace means less than 1 ppb)”. Besides, the “Reduction of nitrosopyrrolidine relative to untreated fried bacon” value in data set [2] is on record as “approximately four”. In data set [2], the “Level of reduction of nitrosopyrrolidine compared with tocopherol” value is reported as “about the same”. In addition, the “Objectionable change in color, odor and flavor relative to untreated bologna” value in data set [5] is “substantially less objectionable change”. For the same compound, the “Levels of N-nitrosamines relative to untreated bologna” value in [6] is “substantially reduced levels of N-nitrosamines”. Besides, the “Objectionable change in color, appearance and odor relative to untreated hand creme” value in data set [7] is reported as “substantially less objectionable change”. The “Levels of N-nitrosamines relative to untreated hand creme” value in data set [8] is listed as “substantially reduced levels of N-nitrosamines”. In addition, the “Objectionable change in color, odor and freshness of mayonnaise” value in [3] is recorded as “substantially less objectionable change”. In [9], the “Rancid and painty taste relative to untreated flakes” value is “insignificant rancid and painty taste”. Further, in data set [4], the “Total Solubility” value stood at 700 ppm. In addition, the solubility in data set [4] (setting [13]) is 450 µg/mL (≈ 1260 µM); in data set [4] (setting [14]), 350 µg/mL (≈ 976 µM).
In the case of `COc1ccc(O)c(C(C)(C)C)c1` [BHA], in [10], the “Distribution coefficient (oil/water) (in words)” value is “essentially infinity” and the “Water solubility (in words)” value was “water-insoluble”.
Turning to `O=C1O[C@H]([C@H](O)CO)C(O)=C1O` [NaEr, sodium erythorbate, reference compound], the “Level of dimethylnitrosamine” value was 1.0 ppb and 1.2 ppb in data set [1] (setting [16]); “trace (Trace means less than 1 ppb)” in [1] (120 ppm NaNO2, 550 ppm NaEr only (null control)); 2.1 ppb and 1.6 ppb in data set [1] (setting [17]). For the same compound, the “Level of nitrosopyrrolidine” value was 4.2 ppb and 3.3 ppb in [2] (setting [16]); 3.6 ppb and 3.9 ppb in [2] (setting [17]).
Turning to `CCCCCCCCCC(=O)OC[C@H](O)[C@H]1OC(=O)C(O)=C1O` [ascorbyl caprate, reference compound], the “Total solubility (in words)” value in [4] (Example 7) is “high total solubility”. Besides, the “Total Solubility” value in [4] is 5400 ppm. Also, in data set [4] (oil/water, Example 7), the “Distribution coefficient (in words)” value is “very low distribution coefficient”. Also, the figures for the solubility in data set [4] (setting [13]) and in [4] (setting [14]) were 100 µg/mL (≈ 303 µM) and 5300 µg/mL (≈ 16000 µM), respectively.
For `CC(C)(C)c1cc(O)ccc1O` [TBHQ], in data set [10], the “Distribution coefficient (oil/water) (in words)” value is recorded as “essentially infinity” and the “Water solubility (in words)” value is reported as “water-insoluble”.
`CCCCCCCCCC(=O)OC[C@@H](O)[C@H]1OC(=O)C(O)=C1O` [erythorbyl caprate]: the “Degradation relative to untreated emollient lotion” value in data set [11] was “substantially less degradation”. For the same compound, in data set [4], the “Total Solubility” value amounted to 4000 ppm. For the same compound, the solubility in [4] (setting [13]) was determined as 1500 µg/mL (≈ 4540 µM); in data set [4] (setting [14]), 2500 µg/mL (≈ 7570 µM).
With `CCCCCCCCCCCCCCCC(=O)OC[C@H](O)[C@H]1OC(=O)C(O)=C1O` [ascorbyl palmitate, reference compound], in data set [4] (Example 7), the “Total solubility (in words)” value was “low total solubility”. For the same compound, the “Total Solubility” value in [4] is recorded as 175 ppm. Moreover, the solubility in [4] (setting [13]) turned out to be 110 µg/mL (≈ 265 µM); in data set [4] (setting [14]) it was 65 µg/mL (≈ 157 µM).
As to tocopherol [reference compound], the “Level of nitrosopyrrolidine” value in data set [2] (120 ppm NaNO2, 550 ppm NaEr + 500 ppm TOC (positive control)) is recorded as “none detected (Limit of detection is 0.2 ppb)”. Also, the “Distribution coefficient (oil/water) (in words)” value in data set [10] is “essentially infinity”.
As for `Cc1cc(C(C)(C)C)c(O)c(C(C)(C)C)c1` [BHT], in data set [10], the “Distribution coefficient (oil/water) (in words)” value was “essentially infinity” and the “Water solubility (in words)” value is recorded as “water-insoluble”.

One may read the solubility as the dissolved amount per volume that the medium holds.
